Where a name gives a salt, the structure may show the parent alone.
Experiments:
Type in all cases: biochemical
[1] = target: T1, FGFR3 (K650E) (Homo sapiens, UniProt P22607, K650E); experiment: Recombinant GST-FGFR-3-K650E tyrosine kinase assay (33P into poly(Glu,Tyr)); details: 10 μM; Examples 1 to 169; read-out: FGFR3 (K650E) inhibition at 10 μM
T1 construct: amino acids 411-806 of the cytoplasmic domain of human FGFR-3, N-terminally fused to GST; made in house; host or cells: Sf9 insect cells (baculovirus)
T1 sequence (P22607 411-806 K650E): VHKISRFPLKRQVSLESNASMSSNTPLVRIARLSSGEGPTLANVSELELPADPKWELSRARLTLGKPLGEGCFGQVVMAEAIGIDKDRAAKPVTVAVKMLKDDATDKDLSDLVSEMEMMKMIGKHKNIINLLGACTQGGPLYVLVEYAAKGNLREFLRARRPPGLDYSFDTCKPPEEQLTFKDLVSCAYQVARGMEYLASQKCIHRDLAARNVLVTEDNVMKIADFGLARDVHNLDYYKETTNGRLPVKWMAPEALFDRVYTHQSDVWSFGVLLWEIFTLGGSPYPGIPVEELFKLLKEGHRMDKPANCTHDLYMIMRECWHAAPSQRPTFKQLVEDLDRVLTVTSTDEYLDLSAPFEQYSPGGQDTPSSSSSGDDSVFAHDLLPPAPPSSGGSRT

[2] = target: T2, KDR (Homo sapiens, UniProt P35968); experiment: Inhibitory activity against KDR (VEGF-R2), in vitro data of Examples 170 and 207; details: 10 μM; Examples 1 to 169; read-out: KDR inhibition at 10 μM
T2 construct: expressed in transfected cells; host or cells: CHO cells
T2 sequence (P35968 20-1356): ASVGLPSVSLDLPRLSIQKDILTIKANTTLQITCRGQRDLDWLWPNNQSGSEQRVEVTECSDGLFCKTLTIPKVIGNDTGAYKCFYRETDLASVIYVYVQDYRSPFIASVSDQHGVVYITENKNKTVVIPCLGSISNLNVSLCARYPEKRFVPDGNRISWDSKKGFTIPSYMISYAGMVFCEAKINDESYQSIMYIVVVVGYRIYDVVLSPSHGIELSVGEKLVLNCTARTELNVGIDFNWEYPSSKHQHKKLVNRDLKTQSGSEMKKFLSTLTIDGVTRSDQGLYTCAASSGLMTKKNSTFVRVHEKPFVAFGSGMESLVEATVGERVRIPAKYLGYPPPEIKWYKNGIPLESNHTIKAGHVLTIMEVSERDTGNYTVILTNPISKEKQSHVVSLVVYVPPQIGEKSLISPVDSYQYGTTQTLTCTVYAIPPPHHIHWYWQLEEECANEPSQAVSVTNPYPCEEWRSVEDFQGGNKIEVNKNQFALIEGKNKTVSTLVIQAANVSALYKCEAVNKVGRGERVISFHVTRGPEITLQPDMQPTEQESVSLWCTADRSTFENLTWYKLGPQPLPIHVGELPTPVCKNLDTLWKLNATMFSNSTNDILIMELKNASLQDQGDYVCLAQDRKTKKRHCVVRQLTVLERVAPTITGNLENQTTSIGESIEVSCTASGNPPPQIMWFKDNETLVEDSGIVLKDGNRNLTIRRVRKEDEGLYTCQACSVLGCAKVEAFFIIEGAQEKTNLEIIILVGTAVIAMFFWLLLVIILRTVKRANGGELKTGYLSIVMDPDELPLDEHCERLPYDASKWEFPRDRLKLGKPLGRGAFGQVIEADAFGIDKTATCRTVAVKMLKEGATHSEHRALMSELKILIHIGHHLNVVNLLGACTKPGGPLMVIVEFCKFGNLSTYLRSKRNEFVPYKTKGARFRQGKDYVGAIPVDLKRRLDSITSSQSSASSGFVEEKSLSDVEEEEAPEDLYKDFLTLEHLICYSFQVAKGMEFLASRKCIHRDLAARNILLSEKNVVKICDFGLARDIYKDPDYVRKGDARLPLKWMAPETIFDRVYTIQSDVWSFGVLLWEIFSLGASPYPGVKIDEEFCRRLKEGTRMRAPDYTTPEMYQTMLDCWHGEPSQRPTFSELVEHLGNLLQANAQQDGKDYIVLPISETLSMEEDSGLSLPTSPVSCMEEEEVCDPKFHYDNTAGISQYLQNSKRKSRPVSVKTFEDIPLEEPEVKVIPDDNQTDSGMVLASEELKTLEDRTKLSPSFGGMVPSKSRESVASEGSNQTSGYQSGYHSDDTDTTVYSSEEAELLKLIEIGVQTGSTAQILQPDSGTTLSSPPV
Procedure, shortened: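 KDR tyrosine phosphorylation detected by luminescence after overnight 4° C capture of 20 μg lysate protein with PY20:AP antibody. Lysates came from cells given compound for 2 h at 37° C, then final 20 ng/ml VEGF for 5 min; compound-free medium as control.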

[3] = target: T3, Tek (Homo sapiens, UniProt Q02763); experiment: Recombinant GST-Tek (Tie-2) tyrosine kinase assay (33P into poly(Glu,Tyr)); details: Examples 1 to 169
T3 construct: amino acids 773-1124 of the cytoplasmic kinase domain of human Tek, N-terminally fused to GST; made in house; host or cells: Sf9 insect cells (baculovirus)
T3 sequence (Q02763 773-1124): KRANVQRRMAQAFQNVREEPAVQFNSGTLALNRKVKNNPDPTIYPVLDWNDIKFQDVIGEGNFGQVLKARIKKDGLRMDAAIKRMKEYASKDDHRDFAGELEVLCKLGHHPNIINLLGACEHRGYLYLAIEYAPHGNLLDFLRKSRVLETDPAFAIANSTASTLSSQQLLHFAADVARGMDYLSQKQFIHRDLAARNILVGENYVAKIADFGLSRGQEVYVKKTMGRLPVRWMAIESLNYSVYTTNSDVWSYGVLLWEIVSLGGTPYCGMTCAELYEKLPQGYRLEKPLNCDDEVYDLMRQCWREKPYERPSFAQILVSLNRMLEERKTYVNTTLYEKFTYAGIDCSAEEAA
Procedure, shortened: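 GST-fused human Tek kinase domain (aa 773-1124), baculovirus-expressed, 150 ng per reaction; 10 μg/mL poly(Glu,Tyr) 4:1, 4.0 μM [γ-33P]ATP, 3 mM MnCl2/3 mM MgCl2, pH 7.5, 30 min at ambient temperature. 33P uptake read on PVDF filters; IC50 by linear regression from four concentrations in duplicate.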

Row | Compound | inhibition at 10 µM [1] [%] | inhibition at 10 µM [2] [%] | inhibition at 10 µM [3] [%]
1 | CN1CCN(c2ccc(Nc3cc(NC(=O)Nc4cc(Cl)cc(Cl)c4)ncn3)cc2)CC1 [Example 10, 1-(3,5-Dichloro-phenyl)-3-{6-[4-(4-methyl-piperazin-1-yl)-phenylamino]-pyrimidin-4-yl}-urea] | 27 to 100 | 67 to 100 | 12 to 100
2 | COc1ccc(NC(=O)Nc2cc(Nc3ccc(N4CCN(C)CC4)cc3)ncn2)cc1OC [Example 30, 1-(3,4-Dimethoxy-phenyl)-3-{6-[4-(4-methyl-piperazin-1-yl)-phenyl-amino]-pyrimidin-4-yl}-urea] | 27 to 100 | 67 to 100 | 12 to 100
3 | COc1cc(C)c(NC(=O)Nc2cc(Nc3ccc(N4CCN(C)CC4)cc3)ncn2)cc1OC [Example 34, 1-(4,5-Dimethoxy-2-methyl-phenyl)-3-{6-[4-(4-methyl-piperazin-1-yl)-phenyl-amino]-pyrimidin-4-yl}-urea] | 27 to 100 | 67 to 100 | 12 to 100
4 | COc1ccc(Cl)c(NC(=O)Nc2cc(Nc3cccc(OCCN4CCOCC4)c3)ncn2)c1Cl [Example 37, 1-(2,6-Dichloro-3-methoxy-phenyl)-3-{6-[3-(2-morpholin-4-yl-ethoxy)-phenylamino]-pyrimidin-4-yl}-urea] | 27 to 100 | 67 to 100 | 12 to 100
5 | CN1CCN(c2ccc(Nc3cc(NC(=O)Nc4ccccc4Br)ncn3)cc2)CC1 [Example 94, 1-(2-Bromo-phenyl)-3-{6-[4-(4-methyl-piperazin-1-yl)-phenylamino]-pyrimidin-4-yl}-urea] | 27 to 100 | 67 to 100 | 12 to 100
6 | CCN1CCN(c2ccc(Nc3cc(NC(=O)Nc4c(Cl)c(OC)cc(OC)c4Cl)ncn3)cc2)CC1 [Example 160, 1-(2,6-Dichloro-3,5-dimethoxy-phenyl)-3-{6-[4-(4-ethyl-piperazin-1-yl)-phenylamino]-pyrimidin-4-yl}-urea] | 27 to 100 | 67 to 100 | 12 to 100
7 | CN1CCN(c2ccc(Nc3cc(NC(=O)Nc4ccccc4Cl)ncn3)cc2)CC1 [Example 93, 1-(2-Chloro-phenyl)-3-{6-[4-(4-methyl-piperazin-1-yl)-phenylamino]-pyrimidin-4-yl}-urea] | 27 to 100 | 67 to 100 | 12 to 100
8 | O=C(Nc1ccc(Cl)cc1)Nc1cc(Nc2cccc(Cl)c2)ncn1 [Example 138, 1-(4-Chloro-phenyl)-3-[6-(3-chloro-phenylamino)-pyrimidin-4-yl]-urea] | 27 to 100 | 67 to 100 | 12 to 100
9 | COc1ccc(NC(=O)Nc2cc(Nc3ccc(N4CCN(C)CC4)cc3)ncn2)cc1Cl [Example 24, 1-(3-Chloro-4-methoxy-phenyl)-3-{6-[4-(4-methyl-piperazin-1-yl)-phenyl-amino]-pyrimidin-4-yl}-urea] | 27 to 100 | 67 to 100 | 12 to 100
10 | COc1cc(NC(=O)Nc2cc(Nc3cccc(N4CCN(C)CC4)c3)ncn2)ccc1F [Example 33, 1-(4-Fluoro-3-methoxy-phenyl)-3-{6-[3-(4-methyl-piperazin-1-yl)-phenyl-amino]-pyrimidin-4-yl}-urea] | 27 to 100 | 67 to 100 | 12 to 100
11 | COc1cc(C)c(NC(=O)Nc2cc(Nc3cccc(N4CCN(C)CC4)c3)ncn2)cc1OC [Example 35] | 27 to 100 | 67 to 100 | 12 to 100
12 | O=C(Nc1cc(Nc2ccc(OCCCN3CCOCC3)cc2)ncn1)Nc1ccccc1Cl [Example 125, 1-(2-Chloro-Phenyl)-3-{6-[4-(3-morpholin-4-yl-propoxy)-phenylamino]-pyrimidin-4-yl}-urea bis-hydrochloride Salt] | 27 to 100 | 67 to 100 | 12 to 100

The remaining lines, values ahead:

Row | inhibition at 10 µM [1] [%] | inhibition at 10 µM [2] [%] | inhibition at 10 µM [3] [%] | Compound
13 | 27 to 100 | 67 to 100 | 12 to 100 | CCN1CCN(Cc2ccc(Nc3cc(N(C)C(=O)Nc4c(Cl)c(OC)cc(OC)c4Cl)ncn3)cc2)CC1 [Example 149, 3-(2,6-Dichloro-3,5-dimethoxy-phenyl)-1-{6-[4-(4-ethyl-piperazin-1-ylmethyl)-phenylamino]-pyrimidin-4-yl}-1-methyl-urea]
14 | 27 to 100 | 67 to 100 | 12 to 100 | CCN(C(=O)Nc1c(Cl)c(OC)cc(OC)c1Cl)c1cc(Nc2cccc(CN(C)C)c2)ncn1 [Example 151, 3-(2,6-Dichloro-3,5-dimethoxy-phenyl)-1-[6-(3-dimethylaminomethyl-phenylamino)-pyrimidin-4-yl]-1-ethyl-urea]
15 | 27 to 100 | 67 to 100 | 12 to 100 | COc1ccc(NC(=O)Nc2cc(Nc3ccc(N4CCN(C)CC4)cc3)ncn2)c(OC)c1 [Example 16, 1-(2,4-Dimethoxy-phenyl)-3-{6-[4-(4-methyl-piperazin-1-yl)-phenyl-amino]-pyrimidin-4-yl}-urea]
16 | 27 to 100 | 67 to 100 | 12 to 100 | COc1cc(NC(=O)Nc2cc(Nc3cccc(N4CCN(C)CC4)c3)ncn2)cc(OC)c1 [Example 19, 1-(3,5-Dimethoxy-phenyl)-3-{6-[3-(4-methyl-piperazin-1-yl)-phenyl-amino]-pyrimidin-4-yl}-urea]
17 | 27 to 100 | 67 to 100 | 12 to 100 | O=C(Nc1cc(Nc2cccc(Cl)c2)ncn1)Nc1ccccc1C(F)(F)F [Example 133, 1-[6-(3-Chloro-phenylamino)-pyrimidin-4-yl]-3-(2-trifluoromethyl-phenyl)-urea]
18 | 27 to 100 | 67 to 100 | 12 to 100 | COc1cccc(NC(=O)Nc2cc(Nc3cccc(Cl)c3)ncn2)c1 [Example 131, 1-[6-(3-Chloro-phenylamino)-pyrimidin-4-yl]-3-(3-methoxy-Phenyl)-urea]
19 | 27 to 100 | 67 to 100 | 12 to 100 | CNc1cc(NC(=O)Nc2cc(OC)cc(OC)c2Cl)ncn1 [Example 38, 1-(2-Chloro-3,5-dimethoxy-phenyl)-3-(6-methylamino-pyrimidin-4-yl)-urea]
20 | 27 to 100 | 67 to 100 | 12 to 100 | COc1ccc(Cl)c(NC(=O)N(C)c2cc(Nc3cccc(N4CCN(C)CC4)c3)ncn2)c1Cl [Example 60, 3-(2,6-Dichloro-3-methoxy-phenyl)-1-methyl-1-{6-[3-(4-methyl-piperazin-1-yl)-phenylamino]-pyrimidin-4-yl}-urea]
21 | 27 to 100 | 67 to 100 | 12 to 100 | COc1cc(NC(=O)Nc2cc(Nc3ccc(OCCN4CCOCC4)cc3)ncn2)c(Cl)c(OC)c1 [Example 44, 1-(2-Chloro-3,5-dimethoxy-phenyl)-3-{6-[4-(2-morpholin-4-yl-ethoxy)-phenylamino]-pyrimidin-4-yl}-urea]
22 | 27 to 100 | 67 to 100 | 12 to 100 | COc1cc(NC(=O)N(C)c2cc(Nc3ccccc3)ncn2)c(Cl)c(OC)c1 [Example 49, 3-(2-Chloro-3,5-dimethoxy-phenyl)-1-methyl-1-(6-phenylamino-pyrimidin-4-yl)-urea]
23 | 27 to 100 | 67 to 100 | 12 to 100 | COc1cc(NC(=O)N(C)c2cc(Nc3ccc(C(=O)N4CCN(C)CC4)cc3)ncn2)c(Cl)c(OC)c1 [Example 52, 3-(2-Chloro-3,5-dimethoxy-phenyl)-1-methyl-1-{6-[4-(4-methyl-piperazine-1-carbonyl)-phenylamino]-pyrimidin-4-yl}-urea]
24 | 27 to 100 | 67 to 100 | 12 to 100 | COc1ccc(OC)c(NC(=O)Nc2cc(Nc3cccc(Cl)c3)ncn2)c1 [Example 132, 1-[6-(3-Chloro-phenylamino)-pyrimidin-4-yl]-3-(2,5-dimethoxy-phenyl)-urea]
25 | 27 to 100 | 67 to 100 | 12 to 100 | COc1cc(NC(=O)N(CCN2CCN(C)CC2)c2cc(Nc3ccccc3)ncn2)c(Cl)c(OC)c1 [Example 57, 3-(2-Chloro-3,5-dimethoxy-phenyl)-1-[2-(4-methyl-piperazin-1-yl)-ethyl]-1-(6-phenylamino-pyrimidin-4-yl)-urea]
26 | 27 to 100 | 67 to 100 | 12 to 100 | COc1ccc(Cl)c(NC(=O)N(C)c2cc(Nc3ccc(C(=O)N4CCN(C)CC4)cc3)ncn2)c1Cl [Example 61, 3-(2,6-Dichloro-3-methoxy-phenyl)-1-methyl-1-{6-[4-(4-methyl-piperazine-1-carbonyl)-phenylamino]-pyrimidin-4-yl}-urea]
27 | 27 to 100 | 67 to 100 | 12 to 100 | CCN(CC)CCCOc1ccc(Nc2cc(NC(=O)Nc3ccccc3Cl)ncn2)cc1 [Example 102, 1-(2-Chloro-phenyl)-3-{6-[4-(3-diethylamino-propoxy)-phenylamino]-pyrimidin-4-yl}-urea]
